Experimental data from patent US4560676A, “N^α -desacetylthymosinα1 and process” (The Rockefeller University, priority 1981, dated 1985).
Where no end group is shown, it is not given here.

Tests used:
[1] = test system: spleen cells of adult thymectomized mice; assay: rosette inhibition assay (azathioprine-sensitive rosette assay); format: cell-based; conditions: restoration of azathioprine sensitivity in rosette formation
Procedure: The desacetylthymosin α1 prepared and characterized above was compared with thymosin α1, prepared on both benzyhydrylamine and PAM resins in the rosette inhibition assay (azathioprine-sensitive rosette assay) as described by Dardenne and Bach in "The Biological Action of Thymic Hormones" (van Bekkum, D. K., Ed.), page 235 (Kooyker Scientific Publications, Rotterdam, 1975). In this assay the peptides are tested for ability to restore azathioprine sensitivity in rosette formation by spleen cells of adult thymectomized mice.

[2] = test system: T-cell differentiation and function; conditions: several in vitro and in vivo assay systems; cited from earlier work

Substance | activity in rosette inhibition assay compared with each other and with natural thymosin α1 [1] | activity relative to fraction 5 [2]
SDAAVDTSSEITTKDLKEKKEVVEEAEN [desacetylthymosin α1, N^α -desacetylthymosin α1] | equally active | –
thymosin α1 (SDAAVDTSSEITTKDLKEKKEVVEEAEN; ends and bridges not checked; UniProt P06454 2-29, looked up) [synthetic thymosin α1 prepared on benzhydrylamine and PAM resins; component of thymosin fraction 5] | equally active | 10 to 1000 times
